Measurements taken from patent US20260027125A1, “AN ANTIBACTERIAL PARENTERAL FORMULATION AND METHODS THEREOF” (BUGWORKS RESEARCH INDIA PVT. LTD., priority 2022, published 2026).

Columns and labels:
[1] = counter ion selected for salt screening; cited from earlier work
[2] = pKa (selection of counterions); assay type: physicochemical; conditions: weakly basic nature of the compound
[3] = Solubility study without acetic acid; assay type: physicochemical; conditions: aqueous with cosolvent or surfactant or cyclodextrin, combination of ascorbic acid and lactic acid, read-out: solubilized at a concentration of
[4] = Solubility of free amine in solvents; assay type: physicochemical

| Compound | pKa (first value) [1] | pKa [2] | solubility [3] [mg/mL] | solubility in solvents [4] |
| --- | --- | --- | --- | --- |
| CCS(=O)(=O)O [ethane sulfonic acid] | 1.68 | – | – | – |
| Cn1c(=O)ccc2ccc(F)c(CCNC[C@H]3CN(c4cnc5c(n4)NC(=O)CO5)C(=O)O3)c21 [compound of Formula (I), (S)-6-(5-(((2-(7-fluoro-1-methyl-2-oxo-1,2-dihydroquinolin-8-yl)ethyl)amino)methyl)-2-oxooxazolidin-3-yl)-2H-pyrazino[2,3-b][1,4]oxazin-3(4H)-one] | – | ~6.81 | 20 | soluble only in dichloromethane and methanol (1:1) mixture |
